Laboratory results: patent US9200046B2, “Reporter system for high throughput screening of compounds and uses thereof” (priority 2011, dated 2015)
Where a name gives a salt, the structure may show the parent alone. Read-outs that look alike come from different tables or passages of the source.

Target: Nrf2-Keap1 complex (Homo sapiens, UniProt Q14145)
Experiment: cell-based
Type: cell-based
Conditions: for activation at 16 µM / activation at 32 µM: 3 h; for activation at 16 µM: read-out: Activation 100 nL; for activation at 32 µM: read-out: Activation 200 nL
[1] = Table 2, 100 nL compound, screen run at 16 and 32 μM, 3 hr
[2] = Table 2, 200 nL compound, screen run at 16 and 32 μM, 3 hr
[3] = Table 1A, 100 nL compound, screen run at 16 and 32 μM, 3 hr
[4] = Table 1A, 200 nL compound, screen run at 16 and 32 μM, 3 hr

Sequence of Nrf2-Keap1 complex (Q14145 whole entry, one chain of several): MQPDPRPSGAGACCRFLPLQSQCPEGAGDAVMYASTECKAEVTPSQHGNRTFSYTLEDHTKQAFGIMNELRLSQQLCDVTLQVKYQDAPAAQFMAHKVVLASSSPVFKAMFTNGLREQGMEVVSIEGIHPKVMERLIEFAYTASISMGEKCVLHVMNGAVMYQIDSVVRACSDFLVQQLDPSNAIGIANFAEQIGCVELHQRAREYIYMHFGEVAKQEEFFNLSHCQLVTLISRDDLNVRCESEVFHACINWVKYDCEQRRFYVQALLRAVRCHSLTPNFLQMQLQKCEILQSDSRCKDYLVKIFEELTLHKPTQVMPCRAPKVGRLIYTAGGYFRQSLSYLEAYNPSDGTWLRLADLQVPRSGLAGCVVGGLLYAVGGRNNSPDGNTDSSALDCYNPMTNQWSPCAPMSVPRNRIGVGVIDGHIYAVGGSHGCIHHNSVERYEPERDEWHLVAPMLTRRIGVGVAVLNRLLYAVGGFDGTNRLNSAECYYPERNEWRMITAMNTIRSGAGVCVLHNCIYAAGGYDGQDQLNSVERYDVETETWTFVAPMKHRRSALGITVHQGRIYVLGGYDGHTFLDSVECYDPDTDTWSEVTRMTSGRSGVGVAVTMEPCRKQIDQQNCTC

| Compound | activation at 16 µM [%] | activation at 32 µM [%] | 100 nL (luminescence) [1] | 200 nL (luminescence) [2] | further results |
| --- | --- | --- | --- | --- | --- |
| C=C1C[C@@H]2[C@H](CC[C@]3(C)C(=O)CC[C@@H]23)[C@@]2(C)C=CC(=O)C=C12 [EXEMESTANE, reference compound] | 261 | 220 | 4836 | 4668 |  |
| CC(=O)O[C@H]1CC[C@]2(C)[C@H]3CC[C@@]4(C)[C@H](c5ccoc5)OC(=O)[C@H]5O[C@]54[C@]3(C)[C@H](OC(C)=O)C[C@H]2C1(C)C [3beta-ACETOXYDEOXODIHYDROGEDUNIN] |  |  | 924 | 972 | Activation 100 nL: 37%; Activation 200 nL: 42% |
| COC(=O)Nc1nc2cc(C(=O)c3cccs3)ccc2[nH]1 [NOCODAZOLE, reference compound] | 28 | 48 |  |  | 100 nL (luminescence) [3]: 940; 200 nL (luminescence) [4]: 980 |
| Nc1ncnc2c1ncn2C1O[C@H](COP(=O)(O)O)[C@@H](O)[C@H]1O (some centres unmarked) [ADENOSINEPHOSPHATE, reference compound] | 27 | 14 |  |  | 100 nL (luminescence) [3]: 924; 200 nL (luminescence) [4]: 556 |
| Oc1cccc2cccnc12 [8-hydroxyquinoline] |  |  |  |  | Neh2-luc reporter activation: 60% |
| COC(=O)c1cc(OC)c(=O)c2c(OC)c(OC)ccc2c1 [METHYL7-DESOXYPURPUROGALLIN-7-CARBOXYLATETRIMETHYLETHER] |  |  | 8248 | 1932 | Activation 100 nL: 516%; Activation 200 nL: 105% |
| CC1(C)C2(Cl)C(Cl)C(Cl)C(Cl)(C(Cl)Cl)C1(Cl)C2Cl (centres unmarked) [STROBANE] | 388 | 235 | 5556 | 5836 |  |
| CC(C)=CCCC1(C)C=Cc2c(O)c3c(c(CC=C(C)C)c2O1)OC12C(=CCCC1C(C)(C)O[C@@]2(C/C=C(\C)C(=O)O)C(=O)O)C3=O (some centres unmarked) [GARCINOLICACID] | 29 | 33 | 800 | 832 |  |
| CO/N=C(\C(=O)N[C@@H]1C(=O)N2C(C(=O)O)=C(COC(C)=O)CS[C@H]12)c1csc(N)n1 [CEFOTAXIMESODIUM, reference compound] | 50 | 7 | 968 | 488 |  |
| S=c1ccss1 [3H-1,2-DITHIOLE-3-THIONE] | 295 | 127 | 5416 | 2832 |  |
| O=c1c(-c2ccccc2)coc2cc(O)cc(O)c12 [5,7-DIHYDROXYISOFLAVONE] | 45 | 58 | 964 | 1776 |  |
| C[C@@](Cc1ccc(O)c(O)c1)(NN)C(=O)O [CARBIDOPA, reference compound] | 217 | 67 | 2262 | 1900 |  |
| CC1(C)C(=O)C=C[C@]2(C)[C@H]3CC[C@@]4(C)[C@H](c5ccoc5)OC(=O)[C@H]5O[C@]54[C@]3(C)C=C[C@@H]12 [7-DESACETOXY-6,7-DEHYDROGEDUNIN] |  |  | 1660 | 188 | Activation 100 nL: 85%; Activation 200 nL: −9% |
| O=c1c(O)c(-c2ccccc2)oc2ccccc12 [3-Hydroxyflavone] |  |  |  |  | hit strength in the screen (words): modest Nrf2 activator |
| O=c1ccn([C@@H]2O[C@H](COP(=O)([O-])OP(=O)([O-])OP(=O)([O-])O)[C@@H](O)[C@H]2O)c(=O)[nH]1.[Na+].[Na+].[Na+] [URIDINETRIPHOSPHATETRISODIUM] |  |  | 612 | 708 | Activation 100 nL: 28%; Activation 200 nL: 16% |
| AMSACRINEHYDROCHLORIDE [reference compound] |  |  |  |  | 100 nL (luminescence): 3384; 200 nL (luminescence): 1264; Activation 100 nL: 345%; Activation 200 nL: 40% |
| COc1ccc2c(c1)OCc1c-2oc2cc(OC)ccc12 [DEHYDROVARIABILIN] | 86 | 39 | 1672 | 916 |  |
| CN1CCc2cccc3c2[C@H]1Cc1ccc(O)c(O)c1-3 [APOMORPHINEHYDROCHLORIDE, reference compound] | 44 | -3 | 880 | 266 |  |
| CC(C)[C@@H](C)/C=C/[C@@H](C)[C@H]1CC[C@H]2C3=CC=C4C[C@@H](O)CC[C@]4(C)[C@H]3CC[C@]12C [ERGOSTEROL] | 86 | 86 | 1676 | 1640 |  |
| COc1ccc(-c2oc3cc(O[C@@H]4O[C@H](CO)[C@@H](O)[C@H](O)[C@H]4O)c(OC)c(O)c3c(=O)c2OC)cc1O [CENTAUREIN] | 41 | 19 | 916 | 876 |  |

| Compound | activation at 16 µM [%] | activation at 32 µM [%] | 100 nL (luminescence) [1] | 200 nL (luminescence) [2] | further results |
| --- | --- | --- | --- | --- | --- |
| COc1cc(/C=C/C(=O)CC(=O)/C=C/c2ccc(O)c(OC)c2)ccc1O [CURCUMIN] | 252 | -4 | 4208 | 264 |  |
| CC1(C)C(=O)CC[C@]2(C)[C@H]3CC[C@]4(C)C(=CC(=O)O[C@H]4c4ccoc4)[C@]3(C)[C@H](O)C[C@@H]12 [DIHYDRO-7-DESACETYLDEOXYGEDUNIN] |  |  | 1852 | 1796 | Activation 100 nL: 98%; Activation 200 nL: 96% |
| CC(=O)O[C@@H]1C[C@H]2C(C)(C)[C@@H](O)CC[C@]2(C)[C@H]2CC[C@@]3(C)[C@H](c4ccoc4)OC(=O)[C@H]4O[C@]43[C@@]21C [beta-DIHYDROGEDUNOL] |  |  | 2270 | 3252 | Activation 100 nL: 217%; Activation 200 nL: 124%; Neh2-luc reporter activation: 220% |
| CSc1nc(NC(C)C)nc(NC(C)C)n1 [PROMETRYN] | 67 | 4 | 1264 | 542 |  |
| CC(=O)NCCc1c[nH]c2ccc(O)cc12 [ACETYLSEROTONIN] | 61 | 31 |  |  | 100 nL (luminescence) [3]: 900; 200 nL (luminescence) [4]: 1056 |
| O=C1c2ccccc2C(=O)c2c(O)c(O)cc(O)c21 [PURPURIN] | 54 | 41 | 1176 | 952 |  |
| O=C1C=C(O)C(=O)c2ccccc21 [LAWSONE] | 54 | 34 |  |  | 100 nL (luminescence): 840; 200 nL (luminescence): 1140 |
| CC(C)c1cc2c(c(O)c1O)[C@@]1(C(=O)O)CCCC(C)(C)[C@@H]1CC2 [CARNOSICACID] | 372 | 182 | 3620 | 4604 |  |
| CCCOc1ccc2nc(NC(=O)OC)[nH]c2c1 [OXIBENDAZOLE, reference compound] | 38 | 36 |  |  | 100 nL (luminescence) [3]: 1164; 200 nL (luminescence) [4]: 1064 |
| C[C@@H]1C[C@H]2[C@@H]3CCC4=CC(=O)C=C[C@]4(C)[C@@]3(Cl)[C@@H](O)C[C@]2(C)[C@@]1(OC(=O)c1ccco1)C(=O)CCl [MOMETASONEFUROATE, reference compound] | 56 | 140 | 1508 | 2936 |  |
| CN1CCN(CC/C=C2/c3ccccc3Sc3ccc(S(=O)(=O)N(C)C)cc32)CC1 [THIOTHIXENE, reference compound] | 55 | -26 | 1500 | 68 |  |
| C=C[C@@](C)(O)CCC1C(=C)CCC2[C@@](C)(CO)CCC[C@]12C (stereo partly drawn) [EPI(13)TORULOSOL] |  |  | 724 | 448 | Activation 100 nL: 27%; Activation 200 nL: 0% |
| COc1cc([C@@H]2c3cc4c(cc3[C@@H](O[C@@H]3O[C@@H]5CO[C@@H](C)O[C@H]5[C@H](O)[C@H]3O)[C@H]3COC(=O)[C@H]23)OCO4)cc(OC)c1O [ETOPOSIDE, reference compound] | 40 | 89 | 1180 | 1484 |  |
| O=c1c(O)c(-c2ccccc2)oc2cccc(O)c12 [3,5-DIHYDROXYFLAVONE] | 66 | -17 | 1484 | 24 |  |
| CCOC(=O)CCC(=O)O[C@H]1[C@H](O[C@@H]2[C@@H](C)[C@H](O[C@H]3C[C@@](C)(OC)[C@@H](O)[C@H](C)O3)[C@@H](C)C(=O)O[C@H](CC)[C@@](C)(O)[C@H](O)[C@@H](C)C(=O)[C@H](C)C[C@@]2(C)O)O[C@H](C)C[C@@H]1N(C)C [ERYTHROMYCINETHYLSUCCINATE, reference compound] | 41 | -20 |  |  |  |
| COC(=O)[C@H](O)[C@H]1C(C)(C)[C@H](OC(C)=O)[C@@H]2CC3=C4CC(=O)O[C@@H](c5ccoc5)[C@]4(C)CC[C@@H]3[C@@]1(C)C2=O [SWIETENOLIDE-3-ACETATE] |  |  | 1430 | 2088 | Activation 100 nL: 70%; Activation 200 nL: 115% |
| O=C(O)/C=C/c1ccc(O)c(O)c1 [[…]] | 50 | 61 | 1040 | 1840 |  |
| CC(=O)[O-].CC(=O)[O-].[Cd+2] [CADMIUMACETATE] |  |  | 992 | 312 | Activation 100 nL: 47%; Activation 200 nL: −6% |
| COc1cc(O)c(C(=O)c2ccccc2)cc1O [CEAROIN] | 53 | 111 | 1076 | 2988 |  |
